From patent publication US7547705B2, “Substituted 8′-pyri(MI)dinyl-dihydrospiro-[cycloalkylamine]-pyrimido[1,2-a]pyrimidin-6-one derivatives” (Sanofi-Aventis, priority 2003, dated 2009)

Biological target: GSK3β (Homo sapiens, UniProt P49841)
Test: Inhibitory activity against GSK3β (33P-ATP phosphorylation of prephosphorylated GS1 peptide, two protocols)
Type: biochemical
Conditions: GS1 peptide / 33P-ATP filter assay; which of the two protocols was used is not stated
Description: Inhibitory activity of the medicament of the present invention against GSK3β: Two different protocols can be used. In a first protocol: 7.5 μM of prephosphorylated GS1 peptide and 10 μM ATP (containing 300,000 cpm of 33P-ATP) were incubated in 25 mM Tris-HCl, pH 7.5, 0.6 mM DTT 6 mM MgCl2, 0.6 mM EGTA, 0.05 mg/ml BSA buffer for 1 hour at room temperature in the presence of GSK3beta (total reaction volume: 100 microliters). In a second protocol: 4.1 μM of prephosphorylated GSI peptide and 42 μM ATP (containing 260,000 cpm 33P-ATP) were incubated in 80 mM Mes-NaOH, pH 6.5, 1 mM Mg acetate, 0.5 mM EGTA, 5 mM 2-mercaptoethanol, 0.02% Tween 20,10% glycerol buffer for 2 hours at room temperature in the presence of GSK3beta. Inhibitors were solubilised in DMSO (final solvent concentration in the reaction medium, 1%). The reaction was stopped with 100 microliters of a solution made of 25 g polyphosphoric acid (85% P2O5), 126 ml 85% H3PO4, H2O to 500 ml and then diluted to 1:100 before use. An aliquot of the reaction mixture was then transferred to Whatman P81 cation exchange filters and rinsed with the solution described above. Incorporated 33P radioactivity was determined by liquid scintillation spectrometry. The phosphorylated GS-1 peptide had the following sequence: NH2-[…](P)EDEE-COOH. […]

Chain of GSK3β (P49841 whole entry, species assumed): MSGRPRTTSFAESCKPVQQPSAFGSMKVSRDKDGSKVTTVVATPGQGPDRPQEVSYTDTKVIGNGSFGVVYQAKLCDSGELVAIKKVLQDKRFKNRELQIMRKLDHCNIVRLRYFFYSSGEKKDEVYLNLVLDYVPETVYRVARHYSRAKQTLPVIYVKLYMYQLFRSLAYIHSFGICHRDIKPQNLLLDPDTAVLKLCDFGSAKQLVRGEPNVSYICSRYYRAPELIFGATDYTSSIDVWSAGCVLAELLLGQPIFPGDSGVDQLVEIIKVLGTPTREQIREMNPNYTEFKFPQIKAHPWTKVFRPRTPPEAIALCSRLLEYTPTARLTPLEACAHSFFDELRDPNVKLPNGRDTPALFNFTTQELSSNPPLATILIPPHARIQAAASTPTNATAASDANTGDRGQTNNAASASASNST

| IC50 [nM] | SMILES |
| --- | --- |
| 7 | CN1CCC2(CC1)CCn1c(nc(-c3ccncc3)cc1=O)N2CC(=O)c1ccccc1 [compound No. 4 of table 1, 1-Methyl-1′-(2-oxo-2-phenylethyl)-8′-(pyridin-4-yl)-3′,4′-dihydrospiro[piperidine-4,2′-pyrimido[1,2-a]pyrimidin]-6′(1′H)-one] |
| 6 | CN1CCC2(CCn3c(nc(-c4ccncc4)cc3=O)N2CC(=O)c2ccccc2)C1 (centres unmarked) [compound No. 4 of table 2, 1′-Methyl-1-(2-oxo-2-phenylethyl)-8-(pyridin-4-yl)-3,4-dihydrospiro (pyrimido[1,2-a]pyrimidine-2,3′-pyrrolidin]-6(1H)-one] |
